{
  "source": "patent US20070048247A1",
  "about": "“Deodorizing tablets” (Kimberly-Clark Worldwide, Inc., priority 2005, published 2007)",
  "key": {"[1]": {"assay": "Example 2 urine odor panel ranking (1.6 millimolar)", "parameters": "species or system Human", "settings": "1.6 millimolar in urine, after 24 hours", "text": "The powders chosen for this example were powders of Acid Blue 25, Acid Blue 45, Acid Blue 129, FD&C Blue No.1 (a triarylmethane), Acid Green 27, Acid Green 41, and Mordant Violet 5 (Alizarin Violet 3R) (commercially available from Sigma-Aldrich Chemical Co., Inc. of St. Louis, Mo.), as well as D&C Green No. 5 (commercially available from Noveon Hilton Davis, Inc. of Cincinnati, Ohio). Human female urine was initially collected and pooled by a nurse on staff at Kimberly-Clark Corporation. […] Powders of the aforementioned quinone compounds were weighed and placed into the mason jars containing 50 milliliters of urine so that the final concentration of the powder was 1.6 millimolar (equivalent to 0.1 wt. %). […] A score of “10” was assigned to the most malodorous jar and a score of “1” was assigned to the least malodorous jar."}, "[2]": {"assay": "Example 3 urine odor panel ranking", "parameters": "species or system Human", "protocol": "(§1) The effectiveness of various quinone compounds in reducing urine odor was compared. […] Human female urine was initially collected and pooled by a nurse on staff at Kimberly-Clark Corporation. The pooled urine was added to mason jars in 50-milliliter aliquots using an automated pipette aid. […] The mason jars were placed in an incubator overnight at 37° C.\n(§2) In addition to ranking the jars from least to most malodorous (on a scale from 1 to 7, with 7 being the most malodors), panelists were also asked to judge whether there were secondary (non-urine) odors present and, if so, the extent that the secondary odors were unpleasant (on a scale from 1 to 5, with 5 being extremely unpleasant).\nIn this assessment, panelists were given instructions to rank the least malodorous jar as “1” and the most malodorous jar as “10,” remaining free to rank the other jars between 2-9."}, "[3]": {"assay": "Example 3 secondary (non-urine) odor ranking", "parameters": "species or system Human", "settings": "individual panelist scores, scale 1 to 5, 5 extremely unpleasant", "protocol": "as §1, §2"}, "[4]": {"assay": "Redox potential (redox potentiometry)", "type": "physicochemical", "text": "The ability of quinone compounds to accept electrons from another substance (i.e., be reduced) may be quantified using a technique known as redox potentiometry. Redox potentiometry is a technique that measures (in volts) the affinity of a substance for electrons—its electronegativity—compared with hydrogen (which is set at 0). Substances more strongly electronegative than (i.e., capable of oxidizing) hydrogen have positive redox potentials. Substances less electronegative than (i.e., capable of reducing) hydrogen have negative redox potentials. The greater the difference between the redox potentials of two substances (ΔE), the greater the vigor with which electrons will flow spontaneously from the less positive to the more positive (more electronegative) substance. As is well known in the art, redox potential may be measured using any of a variety of commercially available meters, such as an Oxidation Reduction Potential (ORP) tester commercially available from Hanna Instruments, Inc. of Woonsocket, R. I. The redox potential of the quinone compounds may, for instance, be less than about −50 millivolts (mV), in some embodiments less than about −150 mV, in some embodiments less than about −300 mV, and in some embodiments, less than about −500 mV. Although not always the case, the redox potential may vary based on the number and location of functional groups, such as sulfonic acid, on the quinone structure. For example, 2-sulfonic acid anthraquinone has a redox potential of −380 mV; 2,6-disulfonic acid anthraquinone has a redox potential of −325 mV; and 2,7-disulfonic acid anthraquinone has a redox potential of −313 mV. Likewise, 2-sulfonic acid naphthaquinone has a redox potential of −60 mV. The use of other functional groups may also have an affect on the ultimate redox potential of the compound. For example, Acid Blue 25, which also contains amino- and aramid functional groups, has a redox potential of −605 mV."}, "[5]": {"assay": "Example 7 urine odor panel ranking (16 millimolar)", "parameters": "species or system Human", "settings": "Example 7 Group C; 16 millimolar in urine; 1 least, 10 most urine malodor", "outline": "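Quinone powders were added at a final 16 millimolar (1 wt. %) to pooled human female urine, and jars were incubated overnight at 37° C. Jars were compared with an untreated urine control jar. The next day panelists scored malodor from 1 (least) to 10 (most).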"}, "[6]": {"assay": "Solubility of powder in urine", "settings": "Example 7; 16 mM in 50 milliliters of urine"}, "[7]": {"settings": "Example 3 first grouping, 8 millimolar in urine, scale 1 to 7, 7 most malodorous"}, "[8]": {"settings": "Example 3 top performers of both groupings, after 24 hours, 1 least, 10 most malodorous"}},
  "data": [
    {"smiles": "Cc1ccc(Nc2cccc3c2C(=O)c2cccc(Nc4ccc(C)cc4S(=O)(=O)[O-])c2C3=O)c(S(=O)(=O)[O-])c1.[Na+].[Na+]", "values": [
      {"measurement": "reducing odor (in words)", "setting": "[1]", "value": "did not perform as well in reducing odor as D&C Green No. 5"},
      {"measurement": "Average Urine Odor Ranking, Avg. Score", "setting": "[2]; [7]", "value": 5.8},
      {"measurement": "Urine Odor Ranking 4 (number of panelists)", "setting": "[2]; [7]", "value": 1},
      {"measurement": "Urine Odor Ranking 6 (number of panelists)", "setting": "[2]; [7]", "value": 3},
      {"measurement": "Urine Odor Ranking 7 (number of panelists)", "setting": "[2]; [7]", "value": 1},
      {"measurement": "Secondary Odor Ranking", "setting": "[3]; Example 3 first grouping", "value": 1}
    ]},
    {"smiles": "O=C1c2ccc(S(=O)(=O)O)cc2C(=O)c2ccc(S(=O)(=O)O)cc21", "note": "[2,6-disulfonic acid anthraquinone]", "values": [
      {"measurement": "redox potential", "setting": "[4]", "value": "−325", "unit": "mV"}
    ]},
    {"smiles": "O=C1c2ccc(S(=O)(=O)O)cc2C(=O)c2cc(S(=O)(=O)O)ccc21", "note": "[2,7-disulfonic acid anthraquinone]", "values": [
      {"measurement": "redox potential", "setting": "[4]", "value": "−313", "unit": "mV"}
    ]},
    {"smiles": "O=C1c2ccccc2C(=O)c2cc(S(=O)(=O)O)ccc21", "note": "[2-sulfonic acid anthraquinone]", "values": [
      {"measurement": "redox potential", "setting": "[4]", "value": "−380", "unit": "mV"}
    ]},
    {"smiles": "O=C1C=C(S(=O)(=O)O)C(=O)c2ccccc21", "note": "[2-sulfonic acid naphthaquinone]", "values": [
      {"measurement": "redox potential", "setting": "[4]", "value": "−60", "unit": "mV"}
    ]},
    {"smiles": "Nc1c(S(=O)(=O)[O-])cc(Nc2ccccc2)c2c1C(=O)c1ccccc1C2=O.[Na+]", "note": "[Acid Blue 25]", "values": [
      {"measurement": "redox potential", "setting": "[4]", "value": "−605", "unit": "mV"},
      {"measurement": "urine odor reduction (in words)", "setting": "[2]; Example 3 first grouping", "value": "functioned effectively to reduce odor"},
      {"measurement": "Average Urine Odor Ranking, Avg. Score", "setting": "[2]; [7]", "value": 3.0},
      {"measurement": "Urine Odor Ranking 1 (number of panelists)", "setting": "[2]; [7]", "value": 1},
      {"measurement": "Urine Odor Ranking 2 (number of panelists)", "setting": "[2]; [7]", "value": 1},
      {"measurement": "Urine Odor Ranking 3 (number of panelists)", "setting": "[2]; [7]", "value": 1},
      {"measurement": "Urine Odor Ranking 4 (number of panelists)", "setting": "[2]; [7]", "value": 1},
      {"measurement": "Urine Odor Ranking 5 (number of panelists)", "setting": "[2]; [7]", "value": 1},
      {"measurement": "Urine Odor Ranking 4 (number of panelists)", "setting": "[2]; [8]", "value": 1},
      {"measurement": "Urine Odor Ranking 7 (number of panelists)", "setting": "[2]; [8]", "value": 1},
      {"measurement": "Urine Odor Ranking 9 (number of panelists)", "setting": "[2]; [8]", "value": 2},
      {"measurement": "Urine Odor Ranking 10 (number of panelists)", "setting": "[2]; [8]", "value": 1},
      {"measurement": "Average Urine Odor Ranking, Avg. Score", "setting": "[2]; Example 3 top performers, after 24 hours, 1 least, 10 most malodorous", "value": 6.8},
      {"measurement": "Average Urine Odor Ranking (with statistical corrections), Avg. Score", "setting": "[2]; Example 3 top performers, after 24 hours, ignoring statistical anomalies", "value": 8.8},
      {"measurement": "Secondary Odor Ranking", "setting": "[3]; Example 3 first grouping", "value": 2},
      {"measurement": "Secondary Odor Ranking", "setting": "[3]; Example 3 top performers, after 24 hours", "value": 4},
      {"measurement": "Average Rankings (Group C), Avg. Score", "setting": "[5]", "value": 2.4},
      {"measurement": "Urine Odor Ranking 1 (number of panelists)", "setting": "[5]", "value": 3},
      {"measurement": "Urine Odor Ranking 4 (number of panelists)", "setting": "[5]", "value": 1},
      {"measurement": "Urine Odor Ranking 5 (number of panelists)", "setting": "[5]", "value": 1},
      {"measurement": "Soluble?", "setting": "[6]", "value": "Mostly"}
    ]}
  ]
}
